Data from patent US20240368566A1, “PYK2-DERIVED PEPTIDES FOR INHIBITING INVADOPODIA-MEDIATED CANCER METASTASIS” (BAR-ILAN UNIVERSITY, priority 2023, published 2024).

Key:
Format in all cases: cell-based, human
MDA-MB-231 cells = assay: 3D scratch wound assay in Matrigel; settings: 0.1, 1, 5 μM peptide; versus scrambled control
Protocol: The 3D scratch wound assay was performed as described in Meirson et al. Targeting invadopodia-mediated breast cancer metastasis by using ABL kinase inhibitors. Oncotarget 2018; 9: 22158-22183. Briefly, 96 well Image Lock microtiter plates (Essen Bioscience) were coated with 100 μg/ml Matrigel (cat #354234; Corning, New-York, NY, USA). Following overnight incubation at 37° C., MDA-MB-231 cells were plated at a final concentration of 350,000 cells/ml and allowed to adhere for 12-16 h in the presence of Pyk2-PRR or control peptides. Following wounding of the bottom Matrigel-cells layer, a top layer of Matrigel was added to a final concentration of 2 mg/ml and allowed to polymerize for 30 min at 37° C. Pyk2-PRR or control scrambled peptides were then added again in DMEM/10% FBS to a final concentration of 0.1, 1, or 5 μM, with or without the MMP inhibitor GM6001 ([…]). Plates were placed in a 37° C. heated chamber, and images were collected using the IncuCyte® Zoom platform (Essen Bioscience; 20×, NA 0.60, air objective). Phase images were collected every one hour for a total of 12 h using the IncuCyte® acquisition software.

[1] = system: interaction between Pyk2 and cortactin in invadopodia; assay: Acceptor photobleaching FRET assay; settings: 0.1, 1, 5 μM peptide; mature matrix-degrading invadopodia
Protocol: Acceptor photobleaching experiments were performed as described in Genna et al., 2018 (supra). In brief, cortactin-TagRFP MDA-MB-231 cells were plated on Alexa 405 gelatin in a medium containing Pyk2-PRR or scrambled control peptides at 0.1, 1, and 5 μM concentration, fixed, and immunostained with pY402-Pyk2/Alexa Fluor 488-goat anti-rabbit (donor) and cortactin/Alexa Fluor 555-goat anti-mouse (acceptor). As a control, cells were stained with Tks5/Alexa Fluor 488-goat anti-rabbit (donor) and cortactin/Alexa Fluor 555-goat anti-mouse (acceptor). Co-localization of cortactin with degradation holes in Alexa 405-labeled gelatin was used to identify mature degrading invadopodia. For all FRET experiments, cells were imaged in PBS at room temperature on a laser-scanning inverted confocal microscope (Zeiss LSM780; 60×, NA 1.4, oil objective). A region of interest surrounding invadopodia was bleached using 100% 561-nm laser power (acceptor channel), and images were acquired in both the 488 nm and the 561 nm channels before and after bleaching. FRET efficiency was calculated as the E=1−(donor pre/donor post) in background-subtracted images and was corrected for fluctuations in laser power and donor bleaching in ImageJ.

cortactin tyrosine Y421 = assay: Immunofluorescence analysis of cortactin tyrosine phosphorylation at invadopodium precursors; settings: EGF stimulation 3 min; all concentrations (0.1, 1, 5 μM)
Protocol: Twenty-four hours before each experiment, cells were plated on fibronectin/gelatin unlabeled matrix in the presence of a Pyk2-PRR or control peptides at 0.1, 1, and 5 μM concentration and allowed to attach for eight hours. Cells were then starved in DMEM/0.5% FBS for 16 h in the presence of peptides and stimulated with 2.5 nM EGF for 3 min or left un-stimulated (0 min EGF). Cells were fixed and stained with mouse phospho-specific cortactin antibody (pY421). To image invadopodia Z-plane, focus was on the ventral surface of the cell where the leading edge containing cortactin is focused. The pixels corresponding to invadopodia dots were then analyzed, not the whole cell. The intensity (mean grey value (mgv) minus background) of cortactin-TagRFP and pY421-cortactin at invadopodium precursors was quantified. The pY421-cortactin/cortactin-TagRFP ratio was calculated as a measure of tyrosine-phosphorylated cortactin at cortactin-rich puncta. Data were normalized to resting cells (0 min EGF) and presented as the relative fold change in cortactin tyrosine phosphorylation.

C[C@H](NC(=O)[C@@H](N)[C@@H](C)O)C(=O)N[C@@H](Cc1ccccc1)C(=O)N[C@@H](CCC(N)=O)C(=O)N[C@@H](CCC(=O)O)C(=O)N1CCC[C@H]1C(=O)N1CCC[C@H]1C(=O)N1CCC[C@H]1C(=O)N[C@@H](CCCCN)C(=O)N1CCC[C@H]1C(=O)N[C@@H](CO)C(=O)N[C@@H](CCCNC(=N)N)C(=O)N1CCC[C@H]1C(=O)N[C@@H](CCCCN)C(=O)N[C@@H](Cc1ccc(O)cc1)C(=O)N[C@@H](CCCNC(=N)N)C(=O)N1CCC[C@H]1C(=O)N1CCC[C@H]1C(=O)N1CCC[C@H]1C(=O)O [Pyk2-PRR2, TAFQEPPPKPSRPKYRPPP]
invasion towards a scratch wound in 3D Matrigel (MDA-MB-231 cells): significantly reduced ability to close the gap
interaction between Pyk2 and cortactin in invadopodia (FRET) [1]: significantly inhibited
cortactin Y421 phosphorylation (cortactin tyrosine Y421): completely abolished
